Results reported in patent US20260285850A1, “SUBSTITUTED OXAZOLIDINONES AND IMIDAZOLINONES AS HERBICIDES” (FMC CORPORATION, priority 2023, published 2026).

Legend:
Assay type in all cases: in vivo
[1] = test system: blackgrass (Alopecurus myosuroides); test: Test A postemergence application, visual injury rating 0-100
Procedure, shortened: (§1)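 Scale 0–100 (no effect to complete control), visual, versus untreated controls, read 10 days after application. Application: preemergence directed spray onto seeded loam–sand soil, or postemergence to young plants; formulation in non-phytotoxic solvent with surfactant.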

[2] = test system: palmer (palmer amaranth, palmer pigweed, Amaranthus palmeri); test: as above
Procedure, shortened: as §1

corn (Zea mays) [3] = test: as above
Procedure, shortened: as §1

soybean (Glycine max) [4] = test: as above
Procedure, shortened: as §1

[5] = test system: horseweed (Erigeron canadensis); test: as above
Procedure, shortened: as §1

kochia (Bassia scoparia) [6] = test: as above
Procedure, shortened: as §1

[7] = test system: green foxtail (Setaria viridis); test: as above
Procedure, shortened: as §1

[8] = test system: galium (catchweed bedstraw, Galium aparine); test: as above
Procedure, shortened: as §1

[9] = test system: barnyardgrass (Echinochloa crus-galli); test: as above
Procedure, shortened: as §1

[10] = test system: wheat (Triticum aestivum); test: as above
Procedure, shortened: as §1

[11] = test system: oat, wild (wild oat, Avena fatua); test: as above
Procedure, shortened: as §1

[12] = test system: ryegrass, Italian (italian ryegrass, Lolium multiflorum); test: as above
Procedure, shortened: as §1

[13] = test system: ragweed (common ragweed, Ambrosia artemisiifolia); test: as above
Procedure, shortened: as §1

[14] = test system: sedge, umbrella (small-flower umbrella sedge, Cyperus difformis); test: Test B flooded paddy test, visual plant response rating 0-100; conditions: 250 g ai/ha, Flood, applied to paddy water, evaluated after 13 days
Procedure, shortened: (§2)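 2-leaf plants; flood 3 cm over soil; compound dosed into paddy water; depth kept constant; greenhouse 13 d; visual scoring vs controls. Dash = no result.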

[15] = test system: barnyardgrass (Echinochloa crusgalli); test: as above; conditions: 250 g ai/ha, Flood, applied to paddy water, evaluated after 13 days
Procedure, shortened: as §2

rice (Oryza sativa) = test: as above; conditions: 250 g ai/ha, Flood, applied to paddy water, evaluated after 13 days
Procedure, shortened: as §2

[16] = test system: ducksalad (Heteranthera limosa); test: as above; conditions: 250 g ai/ha, Flood, applied to paddy water, evaluated after 13 days
Procedure, shortened: as §2

[17] = test system: blackgrass (Alopecurus myosuroides); test: Test A preemergence soil spray, visual injury rating 0-100; conditions: 10 days
Procedure, shortened: as §1

[18] = test system: palmer (palmer amaranth, palmer pigweed, Amaranthus palmeri); test: as above; conditions: 10 days
Procedure, shortened: as §1

corn (Zea mays) [19] = test: as above; conditions: 10 days
Procedure, shortened: as §1

soybean (Glycine max) [20] = test: as above; conditions: 10 days
Procedure, shortened: as §1

kochia (Bassia scoparia) [21] = test: as above; conditions: 62 g ai/ha, 10 days, 0 = no effect, 100 = complete control
Procedure, shortened: as §1

[22] = test system: green foxtail (Setaria viridis); test: as above; conditions: 10 days
Procedure, shortened: as §1

[23] = test system: barnyardgrass (Echinochloa crus-galli); test: as above; conditions: 10 days
Procedure, shortened: as §1

[24] = test system: wheat (Triticum aestivum); test: as above; conditions: 10 days
Procedure, shortened: as §1

[25] = test system: oat, wild (wild oat, Avena fatua); test: as above; conditions: 10 days
Procedure, shortened: as §1

[26] = test system: ryegrass, Italian (italian ryegrass, Lolium multiflorum); test: as above; conditions: 10 days
Procedure, shortened: as §1

[27] = test system: ragweed (common ragweed, Ambrosia artemisiifolia); test: as above; conditions: 10 days
Procedure, shortened: as §1

[28] = 62 g ai/ha, postemergence, 10 days, 0 = no effect, 100 = complete control
[29] = Postemergence, 16 g ai/ha, greenhouse 10 days, 0 no effect, 100 complete control
[30] = 62 g ai/ha, 0 = no effect, 100 = complete control

**Q.** What does the source list for `CC(C)COC(=O)C1=CCC(NC(=O)C2(C)CN(c3cc(Cl)cc(Cl)c3)C(=O)O2)C1` (stereo not drawn) [Compound 155]?
**A.** Blackgrass plant response rating (0-100) [1, 28]: 0; Blackgrass plant response rating (0 to 100 scale) [1, 29]: 0; Pigweed, Palmer plant response rating (0-100) [2, 28]: 0; Pigweed, Palmer plant response rating (0 to 100 scale) [2, 29]: 0; Corn plant response rating (0-100) (corn (Zea mays) [3]; [28]): 0; Corn plant response rating (0 to 100 scale) (corn (Zea mays) [3]; [29]): 0; Soybean plant response rating (0-100) (soybean (Glycine max) [4]; [28]): 20; Soybean plant response rating (0 to 100 scale) (soybean (Glycine max) [4]; [29]): 0; Horseweed plant response rating (0-100) [5, 28]: 0; Horseweed plant response rating (0 to 100 scale) [5, 29]: 0; Kochia plant response rating (0-100) (kochia (Bassia scoparia) [6]; [28]): 40; Kochia plant response rating (0 to 100 scale) (kochia (Bassia scoparia) [6]; [29]): 0; Foxtail, Green plant response rating (0-100) [7, 28]: 20; Foxtail, Green plant response rating (0 to 100 scale) [7, 29]: 0; Galium plant response rating (0-100) [8, 28]: 70; Galium plant response rating (0 to 100 scale) [8, 29]: 0; Barnyardgrass plant response rating (0-100) [9, 28]: 10; Barnyardgrass plant response rating (0 to 100 scale) [9, 29]: 0; Wheat plant response rating (0-100) [10, 28]: 0; Wheat plant response rating (0 to 100 scale) [10, 29]: 0; Oat, Wild plant response rating (0-100) [11, 28]: 0; Oat, Wild plant response rating (0 to 100 scale) [11, 29]: 0; Ryegrass, Italian plant response rating (0-100) [12, 28]: 0; Ryegrass, Italian plant response rating (0 to 100 scale) [12, 29]: 0; Ragweed plant response rating (0-100) [13, 28]: 30; Ragweed plant response rating (0 to 100 scale) [13, 29]: 0; Plant response rating, Sedge, Umbrella (0 to 100 scale, 0 is no effect and 100 is complete control) [14]: 0; Plant response rating, Barnyardgrass (0 to 100 scale, 0 is no effect and 100 is complete control) [15]: 0; Plant response rating, Rice (0 to 100 scale, 0 is no effect and 100 is complete control) (rice (Oryza sativa)): 0; Plant response rating, Ducksalad (0 to 100 scale, 0 is no effect and 100 is complete control) [16]: 0; Blackgrass plant response rating ([17]; 16 g ai/ha, 0 to 100 scale): 0; Blackgrass plant response rating (0-100) [17, 30]: 0; Pigweed, Palmer plant response rating ([18]; 16 g ai/ha, 0 to 100 scale): 0; Pigweed, Palmer plant response rating (0-100) [18, 30]: 0; Corn plant response rating (corn (Zea mays) [19]; 16 g ai/ha, 0 to 100 scale): 0; Corn plant response rating (0-100) (corn (Zea mays) [19]; [30]): 0; Soybean plant response rating (soybean (Glycine max) [20]; 16 g ai/ha, 0 to 100 scale): 0; Soybean plant response rating (0-100) (soybean (Glycine max) [20]; [30]): 0; Kochia plant response rating (0-100) (kochia (Bassia scoparia) [21]): 20; Foxtail, Green plant response rating ([22]; 16 g ai/ha, 0 to 100 scale): 30; Foxtail, Green plant response rating (0-100) [22, 30]: 30; Barnyardgrass plant response rating ([23]; 16 g ai/ha, 0 to 100 scale): 0; Barnyardgrass plant response rating (0-100) [23, 30]: 10; Wheat plant response rating ([24]; 16 g ai/ha, 0 to 100 scale): 0; Wheat plant response rating (0-100) [24, 30]: 10; Oat, Wild plant response rating ([25]; 16 g ai/ha, 0 to 100 scale): 0; Oat, Wild plant response rating (0-100) [25, 30]: 0; Ryegrass, Italian plant response rating ([26]; 16 g ai/ha, 0 to 100 scale): 0; Ryegrass, Italian plant response rating (0-100) [26, 30]: 0; Ragweed plant response rating ([27]; 16 g ai/ha, 0 to 100 scale): 0; Ragweed plant response rating (0-100) [27, 30]: 0
